Measured values published in patent US9062026B2, “Fused pyrimidines and substituted quinazolines as inhibitors of p97” (Cleave Biosciences, Inc., priority 2012, dated 2015).
pIC50: −log10 of the molar value. Like-named read-outs stand apart in the source and are kept apart here.

Target: p97 (Homo sapiens (Human), UniProt P55072)
Assay: P97 ATPase biochem assay (ADP Glo)
Format: biochemical
Protocol: The ATPase assay is performed according the following protocol: Purified enzyme (20 nM p97), substrate (20 μM ATP) and a dose titration of compounds are mixed in buffer (50 mM TRIS pH 7.5, 20 mM MgCl2, 0.02% TX-100, 1 mM DTT, 0.2% (v/v) glycerol) and incubated at 37° C. for 15 minutes. The reaction is terminated and the level of product generated is measured using the ADP Glo Assay Kit (Promega, Madison Wis.). Plotting product generated versus compound concentration and using a four-parameter fit model generates an IC50 value for each compounds.

[1] = 20 nM p97, 20 μM ATP, 37° C., 15 minutes, read-out: p97 biochem IC50

Sequence of p97 (P55072 whole entry): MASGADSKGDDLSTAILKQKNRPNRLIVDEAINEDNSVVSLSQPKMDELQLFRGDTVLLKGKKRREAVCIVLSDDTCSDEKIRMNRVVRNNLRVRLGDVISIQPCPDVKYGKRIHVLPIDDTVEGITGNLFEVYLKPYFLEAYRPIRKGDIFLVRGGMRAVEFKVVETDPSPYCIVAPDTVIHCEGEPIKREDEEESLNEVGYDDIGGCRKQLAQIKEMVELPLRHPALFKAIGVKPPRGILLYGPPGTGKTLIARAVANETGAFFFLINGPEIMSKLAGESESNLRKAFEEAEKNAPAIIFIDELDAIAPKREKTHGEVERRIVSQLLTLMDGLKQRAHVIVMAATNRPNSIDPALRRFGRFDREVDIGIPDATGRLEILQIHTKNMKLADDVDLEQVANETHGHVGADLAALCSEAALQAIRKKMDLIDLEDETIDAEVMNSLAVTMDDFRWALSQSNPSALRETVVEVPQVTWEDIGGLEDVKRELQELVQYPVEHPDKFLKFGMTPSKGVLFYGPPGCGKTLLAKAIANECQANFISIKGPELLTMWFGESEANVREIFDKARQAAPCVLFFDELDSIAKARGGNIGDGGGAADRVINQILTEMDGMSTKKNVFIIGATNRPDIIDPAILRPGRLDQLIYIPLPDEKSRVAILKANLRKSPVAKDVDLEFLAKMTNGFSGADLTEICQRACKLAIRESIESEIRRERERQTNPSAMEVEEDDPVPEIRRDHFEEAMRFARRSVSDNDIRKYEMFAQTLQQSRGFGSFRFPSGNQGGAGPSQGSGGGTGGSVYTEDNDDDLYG

| SMILES | pIC50 [1] | pIC50 (read-out: p97 IC50) |
| --- | --- | --- |
| COc1cccc2c(NCc3ccco3)nc(-n3c(N)nc4ccccc43)nc12 | > 5.30 | – |
| COc1cccc2c(NCc3ccccc3)nc(-n3c(CNC(C)=O)cc4ccccc43)nc12 [drawing 223] | > 5.70 | – |
| COCCOc1cccc2c(NCc3ccccc3)nc(-n3c(OC)cc4ccccc43)nc12 [N-benzyl-2-(2-methoxy-1H-indol-1-yl)-8-(2-methoxyethoxy)quinazolin-4-amine] | – | > 7.00 |
| NCCOc1cccc2c(NCc3ccccc3)nc(-n3c(N)nc4ccccc43)nc12 | > 5.70 | – |
| COc1nc2ccccc2n1-c1nc(NCc2ccccc2)c2ncsc2n1 | > 5.70 | – |
| COCCOc1cccc2c(NCc3ccccc3)nc(-n3c(CNC(N)=O)cc4ccccc43)nc12 [({1-[4-(benzylamino)-8-(2-methoxyethoxy)quinazolin-2-yl]-1H-indol-2-yl}methyl)urea] | – | > 7.00 |
| COC(=O)NCc1cc2ccccc2n1-c1nc2c(c(NCc3ccccc3)n1)CCCC2 [drawing 232] | > 5.70 | – |
| NC(=O)NCc1cc2ccccc2n1-c1nc2c(c(NCc3ccccc3)n1)CCCC2 [drawing 231] | > 5.70 | – |
| Cc1cc2c(C#N)cccc2n1-c1nc2c(c(NCc3ccccc3)n1)CCCC2 [1-[4-(benzylamino)-5,6,7,8-tetrahydroquinazolin-2-yl]-2-methyl-1H-indole-4-carbonitrile] | – | > 7.00 |
| COc1cccc2c(NCc3ccccc3)nc(-c3c(N)[nH]c4ccccc34)nc12 | > 5.70 | – |
| Cc1cc2ccccc2n1-c1nc2c(c(NCc3ccccc3)n1)COC2 | > 5.70 | – |
| COc1cccc2c(NCc3ccoc3)nc(-n3c(N)nc4ccccc43)nc12 | > 5.30 | – |
| COc1cccc2c(NCc3ccccc3)nc(-n3c(CNC(C)=O)cc4ccccc43)nc12 [N-({1-[4-(benzylamino)-8-methoxyquinazolin-2-yl]-1H-indol-2-yl}methyl)acetamide] | – | > 6.52 |
| NCc1cc2ccccc2n1-c1cc(NCc2ccccc2)c2c(n1)CN(C(N)=O)CC2 | > 5.70 | – |
| CC(=O)N1CCc2nc(-n3c(C)cc4ccccc43)nc(NCc3ccccc3)c2C1 | > 5.70 | – |
| COc1cccc2c(NCc3ccccc3)nc(-c3c(C)oc4ccccc34)nc12 | > 5.70 | – |
| COc1cccc2c(NCc3ccccc3)nc(-n3c(C)nc4ccccc43)nc12 | > 5.70 | – |
| c1ccc(CNc2nc(-n3c(CN4CCOCC4)cc4ccccc43)nc3c2CCCC3)cc1 [N-benzyl-2-[2-(morpholin-4-ylmethyl)-1H-indol-1-yl]-5,6,7,8-tetrahydroquinazolin-4-amine] | – | > 6.52 |
| Cc1cc2ccccc2n1-c1nc2c(c(NCc3ccccc3)n1)CCCC2 | > 5.70 | – |
| C#CC(=O)NCc1cc2ccccc2n1-c1nc2c(c(NCc3ccccc3)n1)CCCC2 [N-({1-[4-(benzylamino)-5,6,7,8-tetrahydroquinazolin-2-yl]-1H-indol-2-yl}methyl)prop-2-ynamide] | – | > 7.00 |
| Cc1cc2ccccc2n1-c1nc2c(c(NCc3ccccc3)n1)CCN(C(=O)OC(C)(C)C)C2 | > 5.70 | – |
| CC(=O)N1Cc2nc(-n3c(C)cc4ccccc43)nc(NCc3ccccc3)c2C1 | > 5.70 | – |
| CN(C)Cc1cc2ccccc2n1-c1nc2c(c(NCc3ccccc3)n1)CCCC2 [drawing 229] | > 5.70 | – |
| CCc1nc2ccccc2n1-c1nc(NCc2ccccc2)c2cccc(OC)c2n1 | > 5.70 | – |
| COc1cccc2c(NCc3ccccc3)nc(-n3cnc4ccccc43)nc12 | > 5.70 | – |

| SMILES | pIC50 [1] | pIC50 (read-out: p97 IC50) |
| --- | --- | --- |
| COc1cccc2c(NCc3ccccc3)nc(C(C)c3ccccc3)nc12 (stereo not shown) | > 5.00 | – |
| COc1cccc2c(NCc3ccccc3)nc(C3c4ccccc4CN3C)nc12 (stereo not shown) | > 5.00 | – |
| COc1cccc2c(NCc3ccccc3)nc(-n3c(CN)nc4sccc43)nc12 | > 5.70 | – |
| COc1cccc2c(NCc3ccccc3)nc(N3c4ccccc4CC3C)nc12 (stereo not shown) | > 5.30 | – |
| COC(=O)N1CCc2c(nc(-n3c(CN)cc4ccccc43)nc2NCc2ccccc2)C1 | > 5.70 | – |
| C=CC(=O)NCc1cc2ccccc2n1-c1nc(NCc2ccccc2)c2cccc(OC)c2n1 | > 5.70 | – |
| COCCOc1cccc2c(NCc3ccccc3)nc(-n3c(CN(C)C)cc4ccccc43)nc12 [N-benzyl-2-{2-[(dimethylamino)methyl]-1H-indol-1-yl}-8-(2-methoxyethoxy)quinazolin-4-amine] | – | > 7.00 |
| Cc1cc2ccccc2n1-c1nc(NCc2ccccc2)c2cccc(CN)c2n1 | > 5.70 | – |
| COc1cccc2c(NCc3ccccc3)nc(C3CNc4ccccc43)nc12 (stereo not shown) | > 5.70 | – |
| Cc1cc2ccccc2n1-c1nc2c(c(NCc3ccccc3)n1)COCC2 [N-benzyl-2-(2-methyl-1H-indol-1-yl)-5H,7H,8H-pyrano[4,3-d]pyrimidin-4-amine] | – | > 6.52 |
| CNCCN1CCc2c(nc(-n3c(CN)cc4ccccc43)nc2NCc2ccccc2)C1 | > 5.00 | – |
| COc1cccc2c(NCc3ccccc3)nc(CCC(C)C)nc12 | > 5.00 | – |
| COCCOc1cccc2c(NCc3ccccc3)nc(-n3c(CNS(C)(=O)=O)cc4ccccc43)nc12 [N-({1-[4-(benzylamino)-8-(2-methoxyethoxy)quinazolin-2-yl]-1H-indol-2-yl}methyl)methanesulfonamide] | – | > 7.00 |
| CN(C)Cc1cccc2c(NCc3ccccc3)nc(-n3c(N)nc4ccccc43)nc12 | > 4.60 | – |
| COc1cccc2c(NCc3ccccc3)nc(-n3c(NC(C)=O)nc4ccccc43)nc12 | > 5.30 | – |
| CC(=O)NCc1cc2ccccc2n1-c1nc2c(c(NCc3ccccc3)n1)CCCC2 [drawing 230] | > 5.70 | – |
| CNCC(=O)N1CCc2c(nc(-n3c(CN)cc4ccccc43)nc2NCc2ccccc2)C1 | > 5.00 | – |
| COCCOc1cccc2c(NCc3ccccc3)nc(-n3c(CNC(=O)OC)cc4ccccc43)nc12 [methyl N-({1-[4-(benzylamino)-8-(2-methoxyethoxy)quinazolin-2-yl]-1H-indol-2-yl}methyl)carbamate] | – | > 6.52 |
| COc1cccc2c(NCc3ccccc3)nc(CCc3ccccc3)nc12 | > 4.60 | – |
| COCCOc1cccc2c(NCc3ccccc3)nc(-n3c(CO)nc4ccccc43)nc12 [{1-[4-(benzylamino)-8-(2-methoxyethoxy)quinazolin-2-yl]-1H-1,3-benzodiazol-2-yl}methanol] | – | > 6.52 |
| OCc1nc2ccccc2n1-c1nc2c(c(NCc3ccccc3)n1)CCCC2 [{1-[4-(benzylamino)-5,6,7,8-tetrahydroquinazolin-2-yl]-1H-1,3-benzodiazol-2-yl}methanol] | – | > 6.52 |
| OCc1cc2ccccc2n1-c1nc2c(c(NCc3ccccc3)n1)CCCC2 [drawing 227] | > 5.70 | – |
| NCc1cc2ccccc2n1-c1nc2c(c(NCc3ccccc3)n1)CCCC2 [drawing 219] | > 5.70 | – |
| COCC(=O)N1CCc2nc(-n3c(C)cc4c(C#N)cccc43)nc(NCc3ccccc3)c2C1 [1-[4-(benzylamino)-6-(2-methoxyacetyl)-5H,6H,7H,8H-pyrido[4,3-d]pyrimidin-2-yl]-2-methyl-1H-indole-4-carbonitrile] | – | > 7.52 |
| COc1cccc2c(NCc3ccccc3)nc(-n3c(N(C)C)nc4ccccc43)nc12 | > 5.70 | – |

| SMILES | pIC50 [1] | pIC50 (read-out: p97 IC50) |
| --- | --- | --- |
| Cc1nc2ccccc2n1-c1nc2c(c(NCc3ccccc3)n1)CCCC2 [N-benzyl-2-(2-methyl-1H-1,3-benzodiazol-1-yl)-5,6,7,8-tetrahydroquinazolin-4-amine] | – | > 6.52 |
| Cc1cc2ccccc2n1-c1nc2c(c(NCc3ccccc3)n1)CCNC2 | > 5.70 | – |
| COc1cccc2c(NCc3ccccc3)nc(-c3c(C)[nH]c4ccccc34)nc12 [N-benzyl-8-methoxy-2-(2-methyl-1H-indol-3-yl)quinazolin-4-amine] | – | > 7.00 |
| CC(=O)C1CCc2c(nc(-n3c(CN)cc4ccccc43)nc2NCc2ccccc2)C1 (stereo not shown) | > 5.70 | – |
| COc1cccc2c(NCc3ccccc3)nc(-n3cc(C)c4ccccc43)nc12 | > 5.00 | – |
| COCc1cc2ccccc2n1-c1nc2c(c(NCc3ccccc3)n1)CCCC2 | > 5.70 | – |
| COc1cccc2c(NCc3ccccc3)nc(Nc3ccccn3)nc12 | > 5.00 | – |
| COc1cccc2c(NCc3ccccc3)nc(-n3c(N)nc4cccc(F)c43)nc12 | > 5.00 | – |
| COc1cccc2c(NCc3ccccc3)nc(-n3c(/C=C(/C#N)C(N)=O)cc4ccccc43)nc12 [(2Z)-3-{1-[4-(benzylamino)-8-methoxyquinazolin-2-yl]-1H-indol-2-yl}-2-cyanoprop-2-enamide] | – | > 7.00 |
| Nc1nc2ccccc2n1-c1nc(NCc2ccccc2)c2nc[nH]c2n1 | > 5.30 | – |
| COc1cccc2c(NCc3ccccc3)nc(-n3c(=O)n(C)c4ccccc43)nc12 | > 5.30 | – |
| COc1cccc2c(NCc3ccccc3)nc(-n3c(/C=C/C#N)cc4ccccc43)nc12 [(2E)-3-{1-[4-(benzylamino)-8-methoxyquinazolin-2-yl]-1H-indol-2-yl)prop-2-enenitrile] | – | > 6.52 |
| CS(=O)(=O)NCc1cc2ccccc2n1-c1nc2c(c(NCc3ccccc3)n1)CCCC2 [drawing 233] | > 5.70 | – |
| Nc1nc2ccccc2n1-c1nc2c(c(NCc3ccccc3)n1)CCC2 | > 5.70 | – |
| COCc1nc(-n2c(N)nc3ccccc32)nc(NCc2ccccc2)c1C | > 5.30 | – |
| COc1nc2ccccc2n1-c1nc(NCc2ccccc2)c2c(n1)C(=O)NCC2 | > 5.30 | – |
| COc1cccc2c(NCc3ccccc3)nc(-n3c(OC)cc4ccccc43)nc12 [drawing 204] | > 5.70 | – |
| COCc1cccc2c(NCc3ccccc3)nc(-n3c(N)nc4ccccc43)nc12 | > 5.70 | – |
| COc1cccc2c(NCc3nccs3)nc(-n3c(N)nc4ccccc43)nc12 | > 4.60 | – |
| NC(=O)COc1cccc2c(NCc3ccccc3)nc(-n3c(N)nc4ccccc43)nc12 | > 5.70 | – |
| CS(=O)(=O)N1CCc2c(nc(-n3c(CN)cc4ccccc43)nc2NCc2ccccc2)C1 | > 5.70 | – |
| COc1cccc2c(NCc3ccccc3)nc(-n3c(C)nc(C)c3C)nc12 | > 4.60 | – |
| CCN1CCc2c(nc(-n3c(CN)cc4ccccc43)nc2NCc2ccccc2)C1 | > 5.70 | – |
